From publication PMC8219539 (Journal of Atherosclerosis and Thrombosis, 2020) come the findings set out here.

In the test the target is S1P receptor 2 (S1P2/EDG-5) (Homo sapiens, UniProt O95136). Nature of the test: Fura2 intracellular Ca2+ assay. It counts as cell-based.
Sequence of S1P receptor 2 (S1P2/EDG-5) (O95136 whole entry): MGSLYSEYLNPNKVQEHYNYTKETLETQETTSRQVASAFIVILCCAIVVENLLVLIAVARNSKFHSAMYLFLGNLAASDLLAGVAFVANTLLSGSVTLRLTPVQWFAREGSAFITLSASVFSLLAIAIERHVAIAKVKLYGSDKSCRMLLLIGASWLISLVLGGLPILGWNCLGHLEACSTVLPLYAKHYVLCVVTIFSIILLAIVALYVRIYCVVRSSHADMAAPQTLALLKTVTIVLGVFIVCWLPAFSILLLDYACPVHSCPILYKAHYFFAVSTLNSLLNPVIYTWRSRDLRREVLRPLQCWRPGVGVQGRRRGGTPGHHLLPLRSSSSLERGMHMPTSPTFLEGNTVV

`Cc1nn(C)c2nc(NNC(=O)Nc3c(Cl)cncc3Cl)cc(C(C)C)c12` [JTE-013] came in with an IC50 of 5.3 nM.
Take ONO-5430514: 5.7 nM corresponded to half-maximal inhibition (IC50).
